Test results: patent EP0769958B1, “INHIBITORS OF LEUKOCYTE ADHESION” (ATHENA NEUROSCIENCES, INC., priority 1994, dated 1996)
“Also recorded” adds a separate entry of the source. Bridge positions count the residues as written; N and C are the ends. Ends that are not written are not given here. Peptide text beside a SMILES is read from it.

Columns and labels:
VLA-4 = target: T1, VLA-4 (Homo sapiens, UniProt P05556+P13612); test: Jurkat interaction with soluble VCAM-1 (sVCAM-1-IgG), FACS assay of Example 6; type: cell-based; settings: for inhibition of interaction of sVCAM-1-IgG with Jurkat cells: Mn+2 and 15/7 present
T1 construct: endogenous in cells; host or cells: Jurkat cells
T1 sequence (P13612 34-1032): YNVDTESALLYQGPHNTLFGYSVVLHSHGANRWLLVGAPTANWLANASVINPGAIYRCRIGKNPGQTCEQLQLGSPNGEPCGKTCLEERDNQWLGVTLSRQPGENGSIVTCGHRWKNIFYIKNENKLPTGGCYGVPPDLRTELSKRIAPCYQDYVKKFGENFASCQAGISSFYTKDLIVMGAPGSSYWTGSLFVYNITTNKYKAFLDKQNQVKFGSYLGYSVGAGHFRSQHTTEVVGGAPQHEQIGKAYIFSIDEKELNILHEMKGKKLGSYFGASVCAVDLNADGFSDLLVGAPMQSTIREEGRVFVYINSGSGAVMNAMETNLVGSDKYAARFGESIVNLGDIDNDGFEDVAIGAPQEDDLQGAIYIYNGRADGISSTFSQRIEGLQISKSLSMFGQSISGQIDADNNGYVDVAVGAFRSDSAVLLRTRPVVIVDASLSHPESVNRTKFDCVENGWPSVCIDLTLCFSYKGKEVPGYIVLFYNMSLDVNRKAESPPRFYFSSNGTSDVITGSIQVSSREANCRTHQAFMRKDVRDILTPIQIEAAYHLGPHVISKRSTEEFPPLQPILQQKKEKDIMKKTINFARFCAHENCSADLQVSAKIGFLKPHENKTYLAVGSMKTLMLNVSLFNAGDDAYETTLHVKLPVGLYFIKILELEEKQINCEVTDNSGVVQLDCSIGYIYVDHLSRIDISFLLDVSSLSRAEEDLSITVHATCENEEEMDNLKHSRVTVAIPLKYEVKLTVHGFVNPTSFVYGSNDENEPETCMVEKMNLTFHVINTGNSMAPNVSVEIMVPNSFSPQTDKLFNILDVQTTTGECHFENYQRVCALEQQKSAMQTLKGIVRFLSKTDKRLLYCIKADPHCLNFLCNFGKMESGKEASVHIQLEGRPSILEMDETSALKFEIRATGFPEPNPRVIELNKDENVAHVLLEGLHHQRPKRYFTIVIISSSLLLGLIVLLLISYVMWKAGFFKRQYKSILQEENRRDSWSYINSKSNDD
T1 sequence (P05556 21-798): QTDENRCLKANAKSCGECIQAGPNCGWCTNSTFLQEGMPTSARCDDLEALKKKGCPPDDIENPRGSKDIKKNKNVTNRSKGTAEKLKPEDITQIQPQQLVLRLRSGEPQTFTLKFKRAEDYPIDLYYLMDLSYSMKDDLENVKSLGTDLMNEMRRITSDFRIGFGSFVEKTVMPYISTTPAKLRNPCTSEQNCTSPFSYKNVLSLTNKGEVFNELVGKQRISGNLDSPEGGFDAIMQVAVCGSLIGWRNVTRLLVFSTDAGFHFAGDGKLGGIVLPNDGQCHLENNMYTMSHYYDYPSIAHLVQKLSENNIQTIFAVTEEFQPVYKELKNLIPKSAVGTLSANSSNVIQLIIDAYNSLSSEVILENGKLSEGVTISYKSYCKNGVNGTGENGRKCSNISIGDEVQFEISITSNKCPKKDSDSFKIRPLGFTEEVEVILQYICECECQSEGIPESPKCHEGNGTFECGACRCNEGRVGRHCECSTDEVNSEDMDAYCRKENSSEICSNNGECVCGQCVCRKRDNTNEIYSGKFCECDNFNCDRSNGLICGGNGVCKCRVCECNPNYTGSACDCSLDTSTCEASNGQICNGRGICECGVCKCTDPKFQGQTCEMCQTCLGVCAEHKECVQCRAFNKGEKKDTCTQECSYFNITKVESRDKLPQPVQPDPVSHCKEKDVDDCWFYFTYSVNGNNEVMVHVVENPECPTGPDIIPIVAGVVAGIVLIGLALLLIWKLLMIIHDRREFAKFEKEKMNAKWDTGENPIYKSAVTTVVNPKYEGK
Text: VCAM-1 was expressed as a soluble fusion protein. The construct expressed the seven extracellular domains of VCAM-1 on the N-terminus, and the human IgG1 heavy chain constant region on the C-terminus. Interaction of the soluble construct with Jurkat cells was monitored by standard FACS analysis, using a fluorescently labeled antibody directed against the construct's human IgG tail as a marker.
The activity of VLA-4 can be regulated. 15/7 is a monoclonal antibody that recognizes an activated conformation of VLA-4 and locks the molecule in the active state, thereby enhancing VLA-4-mediated cell adhesion.
Peptides of different length, and with various amino acid substitutions were synthesized based on the sequence of the CDR3 region of the antibody 21/6 (EGYYGNYGVYA) (SEQ ID No. 4). The peptides were then tested for their ability to inhibit Jurkat interaction with sVCAM-1-IgG in the FACS assay described in Example 6. IC50 values were determined for each peptide using this assay.

VLA-4 integrin = target: T2, VLA-4 integrin (Homo sapiens, UniProt P05556+P13612); test: Adhesion of Jurkat cells to peptide-BSA conjugates coated onto plastic; type: cell-based; settings: peptide conjugated to carrier protein, exposed to the plastic at 3 µg/mL; Figure 1
T2 construct: endogenous in cells; host or cells: Jurkat cells
T2 sequence (P13612 34-1032): as the sequence (P13612 34-1032) above
T2 sequence (P05556 21-798): as the sequence (P05556 21-798) above
Protocol: The peptide used in this example was synthesized based on the sequence of the anti-α4 integrin antibody 21/6 (CGGEGYYGNYGVYA, SEQ ID No. 1). In this example the peptide was conjugated to a large carrier protein via the linker region that was synthesized as part of the peptide itself (in italics). The conjugated peptide was then coated onto plastic, and the ability of the conjugate to support cell adhesion was tested. This method is based on a report by Wayner and Kovach^40.
As a positive control, the fibronectin peptide described by Wayner was synthesized, conjugated to carrier protein, and tested for cell adhesion in parallel with SEQ ID NO. 1 (CGGEILDVPST, SEQ ID No. 2). Both peptide conjugates were exposed to the plastic at a concentration of 3 µg/mL. […] Adhesion was not affected by an antibody against β2 integrin (IOT18), a distinct cell adhesion molecule that is also expressed on the surface of Jurkat cells. Thus, like peptide SEQ ID NO. 2, peptide SEQ ID NO. 1 interacts with Jurkat in an α4 integrin-specific fashion.

Molecule: NC(=O)C[C@@H]1NC(=O)CNC(=O)[C@H](Cc2ccccc2)NC(=O)[C@H](Cc2ccc(O)cc2)NC(=O)[C@@H](N)CSSC[C@@H](C(=O)O)NC(=O)[C@H](Cc2ccc(O)cc2)NC(=O)[C@H](CO)NC(=O)[C@H](Cc2c[nH]cn2)NC(=O)[C@H](CCC(=O)O)NC1=O [SEQ ID No. 63] (H-CYFGNEHSYC-OH; disulfide 1-10)
- IC50 (VLA-4; per Example 6: inhibition of Jurkat interaction with sVCAM-1-IgG, FACS, in the presence of Mn+2 and 15/7): ≤ 50 µM

Molecule: NC(=O)C[C@@H]1NC(=O)CNC(=O)[C@H](Cc2ccccc2)NC(=O)CNC(=O)[C@@H](N)CSSC[C@@H](C(=O)O)NC(=O)[C@H](Cc2ccc(O)cc2)NC(=O)[C@H](CO)NC(=O)[C@H](Cc2c[nH]cn2)NC(=O)[C@H](CCC(=O)O)NC1=O [SEQ ID No. 31] (H-CGFGNEHSYC-OH; disulfide 1-10)
- inhibition of interaction of sVCAM-1-IgG with Jurkat cells (VLA-4; result in words): particularly good inhibition

Molecule: CC[C@H](C)[C@@H]1NC(=O)[C@H](CCC(N)=O)NC(=O)[C@H]([C@@H](C)O)NC(=O)[C@H](CCCNC(=N)N)NC(=O)[C@@H](N)CSSC[C@@H](C(=O)O)NC(=O)[C@H](CO)NC(=O)[C@H](CC(=O)O)NC1=O [SEQ ID No. 35] (H-CRTQIDSC-OH; disulfide 1-8)
- inhibitory activity compared with parent or linear peptide (VLA-4; result in words, relative to SEQ ID No. 4 (Nos. 27, 17) or SEQ ID No. 34 (No. 35)): more active than the linear peptide

Molecule: CGGEILDVPST [SEQ ID No. 2, fibronectin peptide described by Wayner, conjugated to carrier protein; positive control, reference compound]
- adhesion of Jurkat cells to immobilized peptide conjugate (VLA-4 integrin): bound equally well

Molecule: CGGEGYYGNYGVYA [SEQ ID No. 1]
- adhesion of Jurkat cells to immobilized peptide conjugate (VLA-4 integrin): bound equally well

Molecule: STLTMNPVSF [SEQ ID No. 40]
- inhibition of interaction of sVCAM-1-IgG with Jurkat cells (VLA-4; result in words): inhibitory; also recorded: quite active in a linear form
